Results as given in ChEMBL document CHEMBL5728856, “Anilinopyrimidines as haematopoietic progenitor kinase 1 (HPK1) inhibitors” (2021).

Biological target: Mitogen-activated protein kinase kinase kinase kinase 1 (Homo sapiens, UniProt Q92918)
Experiment: Enzymatic Activity Assay: The enzymatic activity of Wild Type HPK1 (MAP4K1) Kinase was measured in the presence or absence of an inhibitor compound of the present disclosure by preparation of a reaction mixture containing a fluorescein tagged peptide (2 micromolar final concentration), ATP (Adenosine Triphosphate, 500 micromolar final concentration) and Wild Type kinase (6 nM final concentration) in a buffer system comprising 50 mM HEPES (Buffer), 3 mM MgCl2, 5% w/v Trehalose, 0.01% Brij 35 (Detergent), 0.1% Pluronic F127 (Surfactant), 0.1 mM EDTA (Ethylenediaminetetraacetic acid), 0.1 mM EGTA (ethylene glycol-bis(β-aminoethyl ether)-N,N,N′,N′-tetraacetic acid) and 1 mM DTT (Dithiothreitol) and at a pH of 7.4. The reactions were quenched by the addition of EDTA to a final concentration of 25 mM. A Caliper EZ reader was used to measure the extent of substrate to product conversion.The peptide substrate used in the HPK1 assay was designed based on the amino acid sequence surrounding serine residue 376 of SLP76-Lymphocyte cytosolic protein 2 (a known intracellular substrate of HPK1). […]
Format: cell-based

Chain of Mitogen-activated protein kinase kinase kinase kinase 1 (Q92918 whole entry): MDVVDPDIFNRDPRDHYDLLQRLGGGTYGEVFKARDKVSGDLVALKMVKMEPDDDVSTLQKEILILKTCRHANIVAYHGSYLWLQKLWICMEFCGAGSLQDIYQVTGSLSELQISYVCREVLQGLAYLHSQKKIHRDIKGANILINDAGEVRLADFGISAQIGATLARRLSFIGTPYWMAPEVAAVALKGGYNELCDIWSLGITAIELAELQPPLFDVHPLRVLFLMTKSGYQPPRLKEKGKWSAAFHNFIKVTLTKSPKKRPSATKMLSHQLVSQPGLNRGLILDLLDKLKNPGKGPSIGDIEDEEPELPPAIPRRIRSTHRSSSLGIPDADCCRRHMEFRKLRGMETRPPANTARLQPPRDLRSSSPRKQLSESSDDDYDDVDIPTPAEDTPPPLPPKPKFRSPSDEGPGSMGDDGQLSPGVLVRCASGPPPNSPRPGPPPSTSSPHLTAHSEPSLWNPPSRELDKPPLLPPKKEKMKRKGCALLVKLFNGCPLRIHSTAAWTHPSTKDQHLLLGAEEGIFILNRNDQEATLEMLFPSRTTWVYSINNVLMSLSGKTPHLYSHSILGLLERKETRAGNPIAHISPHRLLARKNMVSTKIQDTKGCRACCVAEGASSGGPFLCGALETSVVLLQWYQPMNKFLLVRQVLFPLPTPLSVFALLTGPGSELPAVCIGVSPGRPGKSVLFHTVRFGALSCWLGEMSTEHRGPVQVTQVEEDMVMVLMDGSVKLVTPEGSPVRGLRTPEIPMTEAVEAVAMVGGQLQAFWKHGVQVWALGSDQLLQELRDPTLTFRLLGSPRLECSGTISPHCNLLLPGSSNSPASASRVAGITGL

IC50: < 5 nM
SMILES: CN1CCc2cc(Nc3ncc(Cl)c(Nc4ccccc4P(C)(C)=O)n3)c(Cl)cc2C1
